Test results as given in article PMC7417534, “Cytochrome P450 inhibition potential and initial genotoxic evaluation of 14-O-[(4,6-diaminopyrimidine-2-yl)thioacetyl] mutilin” (Scientific Reports, 2020).
Read-outs that look alike come from different tables or passages of the source.

Legend:
CYP2C9 mRNA = CYP2C9 mRNA expression in Hep G2 cells (real-time PCR); assay type: cell-based, human; settings: 2 and 4 h, 4.98, 0.16 and 0.08 mM
Procedure: (§1) The logarithmic growth phase Hep G2 cells were seeded into 12-well plastic plates at a density of […]. After incubation at 37 °C under 5% CO2 for 24 h, the media were then replaced with 1 mL of serial dilutions of the DPTM (4.98, 0.16 and 0.08 mM) in fresh media. When cells were incubated for 2, 4 and 12 h at 37 °C under 5% CO2, the RNA was isolated using the Trizol reagent according to the manufacturer’s protocol. Total RNA (5 μL) was transcribed into cDNA by using the PrimeScript RT reagent Kit (Perfect Real Time). The obtained cDNA (5 μL) was added for 45 cycles of PCR amplification to detect the mRNA expression (the primers and sequences used herein were given in Table 3) using the ABI Villa TM7Dx real-time PCR system (Gaithersburg, USA). Glyceraldehyde-3-phosphate dehydrogenase (GAPDH) was used as reference gene. All reactions were performed in a final volume of 20 μL (10 μL of 2 × SYBR Green Real-time PCR Master Mix, 2 μL of cDNA and 2 μL of the primers and 6 μL DEPC water) and executed in triplicate.

CYP2E1 mRNA = CYP2E1 mRNA expression in Hep G2 cells (real-time PCR); assay type: cell-based, human
Procedure: as §1

CYP2D1 = target: T1, CYP2D1 (Rattus norvegicus, UniProt P10633); experiment: Cocktail CYP inhibition in rat liver microsomes, CYP2D1 (metoprolol); assay type: in vitro ADME; settings: cocktail method, read-out: IC50 values, CYP2D1 in RLMs
T1 construct: containing 100 μL RLMs or HLMs; tissue Research Institute for Liver Diseases (Shanghai) Co., Ltd; host or cells: male SD rat liver microsomes
Procedure: (§2) We used the cocktail method to study the inhibition activities of DPTM against CYP enzymes in RLMs and HLMs with slight modification. DPTM (250 μmol) was dissolved in 1.25 mL methanol to a solution and then diluted with methanol and water to 2, 10, 20, 100, 200, 400, 1,000 and 2000 μM, respectively. The obtained serial dilutions (10 μL) were added to the incubation mixtures (200 μL total volume), containing 100 μL RLMs or HLMs (final concentration was 5 μg/μL, respectively), 10 μL glucose-6-phosphate (final concentration was 1 mM), 10 μL glucose-6-phosphate dehydrogenase (final concentration was 0.1 U/L), 20 μL potassium phosphate buffer (final concentration was 0.01 M) and 20 μL MgCl2 (final concentration was 2 mM), to give the final concentrations were 0.1, 0.5, 1, 5 10, 20, 50, and 100 μM, respectively. For the groups that in the absence of DPTM, 10 μL methanol (1%) replaced the DPTM and was added to the incubation mixtures. […] The final concentration of methanol in all the incubation mixtures, including the blank group, was […]. […] The determined metabolic substrates were used for calculating the relative enzyme activity (Erel) by the following formula: Erel (%) = Ci(n)/Ci(0) × 100%, in which Ci(n) was the determined metabolic substrates in the presence of varying concentrations of DPTM and Ci(0) was the determined metabolic substrates in the absence of DPTM. […]

[1] = test system: S. typhimurium strains TA97, TA98, TA100, TA102 and TA1535; experiment: Ames test, overall verdict over five strains; assay type: cell-based, Salmonella typhimurium; settings: with or without S9, up to 3.98 μmol/plate
Source text: (§3) S. typhimurium strains TA97, TA98, TA100, TA102 and TA1535 were stored and maintained as provided in the standard protocol. Each of the strains was checked for their genetic integrity prior to the experiment, and tested for biotin dependence, histidine dependence, biotin and histidine dependence, rfa marker (crystal violet) and presence of the plasmid pKM101 (ampicillin resistance) or pAQ1 (tetracycline resistance). Different strains were used to identify different types of mutations.
(§4) The test was carried out at five different concentrations of DPTM. […] Then 1 mL solution was diluted with distilled water by two fold. […] The negative control used in this experiment was 1 mL DMSO which was directly incorporated into 9 mL melted top agar.
The Ames test of DPTM was conducted as described in the literatures[42],[43] with some modifications. Briefly, 1 mL of strain was inoculated into 5 mL of nutrient broth, followed by incubating overnight at 37 °C. The mixture comprised respective strains, drug, negative and positive controls with the S9 for testing in the presence of metabolic activation system. For testing without S9, 1 × phosphate buffer saline (PBS, pH 7.4) replaced the S9 mix. The obtained mixtures were added into the tube, mixed well and incubated at 37 °C for 20 min. […] The results were expressed as the number of revertant colonies per plate. […]

S. typhimurium TA102 = settings: − S9
Source text: as §3
The test was carried out at five different concentrations of DPTM. […] Then 1 mL solution was diluted with distilled water by two fold.
(§5) The Ames test of DPTM was conducted as described in the literatures[42],[43] with some modifications. Briefly, 1 mL of strain was inoculated into 5 mL of nutrient broth, followed by incubating overnight at 37 °C. The mixture comprised respective strains, drug, negative and positive controls with the S9 for testing in the presence of metabolic activation system. For testing without S9, 1 × phosphate buffer saline (PBS, pH 7.4) replaced the S9 mix. The obtained mixtures were added into the tube, mixed well and incubated at 37 °C for 20 min. Then, the top agar was melted and 2 mL of this melted top agar was added to each tube and gently mixed. […] The results were expressed as the number of revertant colonies per plate. The experiments were performed in triplicate.

PPARα mRNA = PPARα mRNA expression in Hep G2 cells (real-time PCR); assay type: cell-based, human; settings: 2, 4 and 12 h, three doses
Procedure: as §1

CYP2E1 = target: T2, CYP2E1 (Rattus norvegicus, UniProt P05182); experiment: Cocktail CYP inhibition in rat liver microsomes, CYP2E1 (chlorzoxazone); assay type: in vitro ADME; settings: cocktail method, read-out: IC50 values, CYP2E1 in RLMs
T2 construct: containing 100 μL RLMs or HLMs; tissue Research Institute for Liver Diseases (Shanghai) Co., Ltd; host or cells: male SD rat liver microsomes
Procedure: as §2

CYP1A2 mRNA = CYP1A2 mRNA expression in Hep G2 cells (real-time PCR); assay type: cell-based, human
Procedure: as §1

S. typhimurium TA1535 = settings: − S9
Source text: as §3, §4, §5

S. typhimurium TA97 = experiment: Ames test, strain TA97; assay type: cell-based, Salmonella typhimurium; settings: − S9
Source text: as §3, §4, §5

T1 sequence (P10633 whole entry): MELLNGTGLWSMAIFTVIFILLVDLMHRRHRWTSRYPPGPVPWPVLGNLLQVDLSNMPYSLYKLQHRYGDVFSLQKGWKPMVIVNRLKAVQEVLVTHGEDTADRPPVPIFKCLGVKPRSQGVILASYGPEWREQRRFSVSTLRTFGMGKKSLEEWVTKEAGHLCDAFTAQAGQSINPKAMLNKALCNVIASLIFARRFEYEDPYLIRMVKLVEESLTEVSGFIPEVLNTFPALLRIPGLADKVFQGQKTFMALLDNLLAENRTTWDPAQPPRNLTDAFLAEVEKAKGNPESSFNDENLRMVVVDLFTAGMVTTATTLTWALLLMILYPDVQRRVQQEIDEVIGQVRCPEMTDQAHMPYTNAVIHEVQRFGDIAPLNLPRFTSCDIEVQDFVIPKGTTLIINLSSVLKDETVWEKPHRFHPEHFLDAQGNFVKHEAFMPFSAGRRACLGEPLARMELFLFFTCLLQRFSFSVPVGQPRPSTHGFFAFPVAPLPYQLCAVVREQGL
T2 sequence (P05182 whole entry): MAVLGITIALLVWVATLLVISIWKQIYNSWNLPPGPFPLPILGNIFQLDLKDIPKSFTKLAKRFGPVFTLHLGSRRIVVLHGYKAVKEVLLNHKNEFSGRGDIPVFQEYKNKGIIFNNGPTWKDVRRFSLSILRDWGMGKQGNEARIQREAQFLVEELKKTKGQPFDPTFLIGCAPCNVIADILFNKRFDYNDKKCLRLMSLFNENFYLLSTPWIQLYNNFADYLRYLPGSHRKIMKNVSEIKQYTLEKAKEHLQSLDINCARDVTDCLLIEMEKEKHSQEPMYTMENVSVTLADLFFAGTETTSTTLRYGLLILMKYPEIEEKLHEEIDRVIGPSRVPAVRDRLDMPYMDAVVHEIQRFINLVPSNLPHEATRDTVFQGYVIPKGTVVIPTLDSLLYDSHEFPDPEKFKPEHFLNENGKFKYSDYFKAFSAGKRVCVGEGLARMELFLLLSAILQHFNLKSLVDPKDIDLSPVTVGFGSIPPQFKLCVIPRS

## C=CC1(C)CC(OC(=O)CSc2nc(N)cc(N)n2)C2(C)C(C)CCC3(CCC(=O)C32)C(C)C1O (centres unmarked) [DPTM, 14-O-[(4,6-Diaminopyrimidine-2-yl)thioacetyl] mutilin]
CYP2C9 mRNA
  CYP2C9 mRNA expression versus control: significantly increase
CYP2E1 mRNA; 4 h, three doses
  CYP2E1 mRNA level versus control: no significantly difference
CYP2E1 mRNA; 12 h
  CYP2E1 mRNA expression versus control: significantly lowered
CYP2D1
  IC50: > 100 µM
[1]
  mutagenicity verdict (Ames test): should not be considered as a mutagen
S. typhimurium TA102; dose 0.25 μmol/plate
  revertant colonies per plate, TA102: 256 ± 20 CFU
S. typhimurium TA102; dose 0.50 μmol/plate
  revertant colonies per plate, TA102: 241 ± 10 CFU
S. typhimurium TA102; dose 1.00 μmol/plate
  revertant colonies per plate, TA102: 260 ± 17 CFU
S. typhimurium TA102; dose 1.99 μmol/plate
  revertant colonies per plate, TA102: 264 ± 15 CFU
S. typhimurium TA102; dose 3.98 μmol/plate
  revertant colonies per plate, TA102: 268 ± 12 CFU
PPARα mRNA
  PPARα mRNA expression versus control: significantly increase
CYP2E1
  IC50: 61 ± 8 µM
CYP1A2 mRNA; 2 and 4 h, 4.98, 0.16 and 0.08 mM
  CYP1A2 mRNA expression versus control: significantly increase
CYP1A2 mRNA; 12 h
  CYP1A2 mRNA expression versus control: significantly lowered
S. typhimurium TA1535; dose 0.25 μmol/plate
  revertant colonies per plate, TA1535: 22 ± 3 CFU
S. typhimurium TA1535; dose 0.50 μmol/plate
  revertant colonies per plate, TA1535: 21 ± 5 CFU
S. typhimurium TA1535; dose 1.00 μmol/plate
  revertant colonies per plate, TA1535: 26 ± 1 CFU
S. typhimurium TA1535; dose 1.99 μmol/plate
  revertant colonies per plate, TA1535: 22 ± 3 CFU
S. typhimurium TA1535; dose 3.98 μmol/plate
  revertant colonies per plate, TA1535: 22 ± 4 CFU
S. typhimurium TA97; dose 0.50 μmol/plate
  revertant colonies per plate, TA97: 165 ± 14 CFU
S. typhimurium TA97; dose 1.00 μmol/plate
  revertant colonies per plate, TA97: 171 ± 8 CFU
S. typhimurium TA97; dose 1.99 μmol/plate
  revertant colonies per plate, TA97: 174 ± 17 CFU
S. typhimurium TA97; dose 3.98 μmol/plate
  revertant colonies per plate, TA97: 169 ± 14 CFU
